Laboratory results from patent US12564622B2, “Preventing cytokine release syndrome” (priority 2017, dated 2026).
Where “and” joins values, the source holds several entries; their conditions need not be identical. Equal entries are not always repeated. Entries after “also recorded” stand apart in the source; their conditions may differ.

Experiments:
[1] = tested on: polymicrobial peritoneal sepsis induced by CLP; experiment: Cecal ligation and puncture (CLP) sepsis; type: in vivo, mouse (C57BL/6); conditions: ANP given after CLP
[2] = tested on: Raji-bearing NSGS mice with low tumour burden treated with hCART19; experiment: hCART19 treatment of Raji-bearing NSGS mice, low tumour burden; type: in vivo, mouse (NSGS); conditions: for hCART19-induced catecholamines and human and mouse cytokines: metyrosine IP or ANP by osmotic pump; for prevention of CRS (mouse cytokines IL-6, KC, MIP-2): with hCART19
Description: Six to eight weeks old female NSG-SGM3 (NSGS) mice (NOD.Cg-Prkdcscid Il2rgtm1WjlTg (CMV-IL3, CSF2, KITLG) 1Eav/MloySzJ, Stock #013062) were purchased from the Jackson Laboratory. Raji cells were transfected with a luciferase construct via lentivirus to create Raji-luc cells. NSGS is a triple transgenic strain expressing human IL3, GM-CSF and SCF combine the features of the highly immunodeficient NOD scid gamma (NSG) mouse. One day before the injection of Raji cells, mice were irradiated at a dose of 2 Gy in a CIXD Xstahl device. In high tumor burden experiments in FIG. 5, 10^6 Raji-luc cells were injected IV via tail vein. Six days later, tumor loads were assessed using a Xenogen instrument and 15×10^6 hCART19 cells or untransduced T-cells were injected IV. In low tumor burden experiments in FIG. 6, 2×10^5 Raji-luc cells were injected IV via tail vein. Four days later, tumor loads were assessed using a Xenogen instrument and 15×10^6 hCART19 cells were injected IV. Metyrosine was injected IP at 60 mg/kg/day for three days before the hCART19 injection. On the day of CART19 injection, a fourth dose of 60 mg/kg was given IP and the mice were subsequently injected four more times at daily intervals at 30 mg/kg.

[3] = tested on: co-culture of hCART19 and Raji cells; experiment: In vitro co-culture of Raji and hCART19 cells; type: cell-based, human; conditions: Raji with hCART19 (1:5), 24 hours; metyrosine 2 mM or ANP 5 μg/ml
Description: Human CD19scFv-CD28-4-1BB-CD3ζ CAR-T cells (PM-CAR1003) were purchased from Promab Biotechnologies and maintained less than 7 days in AIM-V medium (GIBCO) supplemented with 300 IU/ml of hIL2 (Peprotech), 5% FBS and antibiotics (Car-T medium).

[4] = tested on: anti-CD3 antibody-induced CRS in BALB/c mice; experiment: Anti-CD3 treatment induced CRS; type: in vivo, mouse (BALB/c)
Description: (§1) Metyrosine was freshly dissolved in PBS and injected IP at 60 mg/kg/day for three days prior to injection of anti-CD3 antibodies. […] Thirty minutes before the IP injection of the anti-mouse CD3 antibody (BioXcell, 145-2C11), metyrosine was IP injected at 60 mg/kg into the contralateral side. A single additional dose of 30 mg/kg metyrosine was injected IP on the following day. Control groups were injected with PBS at the same times.
as §1, with “times. For experiments with conditional TH knockout mice, 4-6 week-old LysMcre: TH fl/fl (TH^ΔLysM) mice with C57BL/6 background were used and LysMcre: TH+/+ mice of the same age were used as control. In these experiments, 200 μg/mouse anti-mouse CD3 antibody was injected IP.” for “times.”

[5] = tested on: human U937-derived macrophage cells; experiment: U937 macrophage catecholamine and cytokine production; type: cell-based; conditions: LPS 1 μg/ml and/or epinephrine 15 ng/ml, metyrosine 2 mM
Description: Human U937 cells were cultured in RPMI 1640 media with 5% FBS and antibiotics, and were differentiated to M1 macrophage-like cells by incubating with 20 nM phorbol 12-myristate 13-acetate (PMA, Sigma) for 24 hours and further culturing in RPMI 1640 media with 5% FBS and antibiotics for another 72 hours. The experiments with U937 were set up in the same way as described above with peritoneal macrophages. […] Cells were incubated for 24 hours with LPS at 1 μg/ml.

LPS-injected BALB/c mice = type: in vivo, mouse (BALB/c)
Description: LPS from Escherichia coli 0111:B4 was formulated as a 10 mg/ml solution in water and stored in −80° C. LPS was injected intraperitoneally at a dose of 3.5 mg/kg. […] Human ANP (Sigma) was dissolved in saline, loaded in mini-osmotic pumps (ALZET) with a release rate of 12 μg/day and implanted subcutaneously in the back of mice 12 hours before the LPS injection. Mice implanted with pumps loaded with saline served as controls. […] […] The control groups were injected with PBS. […] Hydration of mice was supported by daily subcutaneous injection of 0.5 ml saline.
LPS from Escherichia coli 0111:B4 was formulated as a 10 mg/ml solution in water and stored in −80° C. In Balb/C mice, LPS was injected intraperitoneally at a lethal dose of 3.5 mg/kg. […] In experiments with catecholamine pumps, a sublethal dose with 15-35% death rate was optimized in Balb/C mice. In TH+/+ and TH^ΔLysM mice with C57BL/6 background, a lethal dose was optimized at 5 mg/kg. Human ANP (Sigma) was dissolved in saline, loaded in mini-osmotic pumps (ALZET) with a release rate of 12 μg/day and implanted subcutaneously in the back of mice 12 hours before the LPS injection. Mice implanted with pumps loaded with saline served as controls. Metyrosine was freshly dissolved in PBS and injected IP at the indicated doses for three days prior to the LPS treatment. One hour before the LPS injection, metyrosine was injected into the lower abdomen contralateral to the side of LPS injection. The control groups were injected with PBS. For the following 3 days, metyrosine was injected IP at reduced indicated doses. Hydration of mice was supported by daily subcutaneous injection of 0.5 ml saline.

[6] = 24 hours after anti-CD3, metyrosine pre-treatment

| SMILES | survival after CLP, treatment after rather than before CLP [1] | hCART19-induced catecholamines and human and mouse cytokines ([2]; low tumour burden) | prevention of CRS (mouse cytokines IL-6, KC, MIP-2) [2] | catecholamine production [3] | cytokine production [3] | IL-2 and IFN-γ [4, 6] | circulating catecholamines [4, 6] | pro-inflammatory cytokines (IL-6, TNF-α, KC, MIP-2, MIP-1α) [4, 6] | mice surviving (of mice pre-treated) ([4]; anti-CD3 125 μg/mouse, metyrosine pre-treatment) | animals with tumors eradicated (BLI below 10^6), day 6 ([2]; hCART19 plus metyrosine) | animals with tumors eradicated (BLI below 10^6), day 19 ([2]; hCART19 plus metyrosine) | reduction of lymphoma burden within one week versus hCART19 controls ([2]; hCART19 plus metyrosine, BLI) | long-term survival ([2]; low tumour burden) [%] | catecholamines and cytokines [5] | levels of catecholamines (LPS-injected BALB/c mice; LPS, metyrosine pre-treatment) | levels of inflammatory cytokines (LPS-injected BALB/c mice; LPS, metyrosine pre-treatment) | mice surviving (LPS-injected BALB/c mice; lethal dose LPS IP, metyrosine pre-treatment) | efficacy at 20 mg/kg (LPS-injected BALB/c mice; lethal dose LPS, metyrosine 20 mg/kg) | dependence of efficacy on dose (LPS-injected BALB/c mice; lethal dose LPS, metyrosine 20, 30, 40 mg/kg) |
| --- | --- | --- | --- | --- | --- | --- | --- | --- | --- | --- | --- | --- | --- | --- | --- | --- | --- | --- | --- |
| CC[C@H](C)[C@@H]1NC(=O)[C@H](CCCNC(=N)N)NC(=O)[C@H](CC(=O)O)NC(=O)[C@H](CCSC)NC(=O)[C@H](CCCNC(=N)N)NC(=O)CNC(=O)CNC(=O)[C@H](Cc2ccccc2)NC(=O)[C@@H](NC(=O)[C@H](CO)NC(=O)[C@H](CO)NC(=O)[C@H](CCCNC(=N)N)NC(=O)[C@H](CCCNC(=N)N)NC(=O)[C@H](CC(C)C)NC(=O)[C@@H](N)CO)CSSC[C@@H](C(=O)N[C@@H](CC(N)=O)C(=O)N[C@@H](CO)C(=O)N[C@@H](Cc2ccccc2)C(=O)N[C@@H](CCCNC(=N)N)C(=O)N[C@@H](Cc2ccc(O)cc2)C(=O)O)NC(=O)CNC(=O)[C@H](CC(C)C)NC(=O)CNC(=O)[C@H](CO)NC(=O)[C@H](CCC(N)=O)NC(=O)[C@H](C)NC(=O)CNC1=O [ANP, atrial natriuretic peptide] | did not rescue the mice | abrogated | effective at preventing CRS |  |  |  |  |  |  |  |  |  |  |  |  |  |  |  |  |
| C[C@](N)(Cc1ccc(O)cc1)C(=O)O [metyrosine, α-methyl-tyrosine] |  | reduced | effective at preventing CRS | significantly decreased; also recorded: suppressed the catecholamine surge | significantly decreased; also recorded: blocked | not significantly affected | reduced to near normal levels; also recorded: significantly reduced | major reductions | eleven of the twelve; also recorded: twelve of the fifteen | 6 out of 10 | 4 out of 10 | significantly more so | 40 | Comparable results were obtained | substantially reduced | substantially reduced | ~70% and ~75% | ineffective | dose-dependent |
